According to the NIST ThermoML archive (doi:10.1021/je0496950):
Several values for one entry are separate records, joined by “and”; a condition that tells them apart may be missing. Equal values may be shown once.

How the values were obtained:
[1] = mn = molality of the nth substance listed, in mol/kg; conditions: 101 kPa, Liquid; for speed of sound: Pulse-echo method
[2] = 101 kPa, Liquid

CC#N [acetonitrile] + [O-][Cl+3]([O-])([O-])[O-].[O-][Cl+3]([O-])([O-])[O-].[Zn+2]
[1], m2 = 0
Conditions	mass density [kg/m3]
288.13 K	787.312
293.15 K	781.934
298.15 K	776.535
303.15 K	771.106
308.15 K	765.649
313.15 K	760.158
323.15 K	749.07

CC#N [acetonitrile]
[2]
Conditions	mass density
288.13 K	787.307 kg/m3 and 787.308 kg/m3 and 787.312 kg/m3
288.15 K	787.308 kg/m3
293.15 K	781.933 kg/m3 [middle of 4 runs]
298.15 K	776.532 kg/m3 [middle of 4 runs]
303.15 K	771.106 kg/m3 [middle of 4 runs]
308.15 K	765.645 kg/m3 and 765.664 kg/m3 and 765.649 kg/m3
313.15 K	760.158 kg/m3 [middle of 4 runs]
323.15 K	749.07 kg/m3 [middle of 4 runs]

[Co+2].[O-][Cl+3]([O-])([O-])[O-].[O-][Cl+3]([O-])([O-])[O-] [cobalt(II) perchlorate] + CC#N
[1]
Conditions	mass density, 288.13 K [kg/m3]	mass density, 293.15 K [kg/m3]	mass density, 298.15 K [kg/m3]	mass density, 303.15 K [kg/m3]	mass density, 308.15 K [kg/m3]	mass density, 313.15 K [kg/m3]	mass density, 323.15 K [kg/m3]	speed of sound, 298.15 K [m/s]
m1 = 0.0631	799.771	794.418	789.05	783.653	778.228	772.771	761.76	–
m1 = 0.06311	–	–	–	–	–	–	–	1282.4
m1 = 0.1115	809.436	804.1	798.743	793.363	787.958	782.523	771.558	1285.1
m1 = 0.1477	816.764	811.44	806.094	800.726	795.334	789.913	778.975	1287
m1 = 0.1815	823.65	818.333	812.996	807.639	802.256	796.848	785.942	1289
m1 = 0.2169	831.031	825.723	820.399	815.051	809.685	804.289	793.42	1290.7
m1 = 0.2496	837.824	832.525	827.21	821.873	816.516	811.134	800.293	1292.6
m1 = 0.2829	844.904	839.613	834.306	828.983	823.636	818.267	807.451	1294.5
m1 = 0.3172	852.306	847.023	841.727	836.41	831.074	825.719	814.932	1296.4
m1 = 0.3491	859.24	853.965	848.675	843.372	838.048	832.702	821.94	1298.2

CC#N [acetonitrile] + [Ni+2].[O-][Cl+3]([O-])([O-])[O-].[O-][Cl+3]([O-])([O-])[O-]
[1], m2 = 0
Conditions	mass density [kg/m3]
288.13 K	787.307
293.15 K	781.93
298.15 K	776.53
303.15 K	771.101
308.15 K	765.645
313.15 K	760.155
323.15 K	749.068

[Cu+2].[O-][Cl+3]([O-])([O-])[O-].[O-][Cl+3]([O-])([O-])[O-] [copper perchlorate] + CC#N
[1]
Conditions	mass density, 288.13 K [kg/m3]	mass density, 293.15 K [kg/m3]	mass density, 298.15 K [kg/m3]	mass density, 303.15 K [kg/m3]	mass density, 308.15 K [kg/m3]	mass density, 313.15 K [kg/m3]	mass density, 323.15 K [kg/m3]	speed of sound, 298.15 K [m/s]
m1 = 0.0572	798.765	793.409	788.03	782.624	777.19	771.728	760.698	–
m1 = 0.05724	–	–	–	–	–	–	–	1281.6
m1 = 0.1013	807.682	802.334	796.961	791.568	786.147	780.696	769.697	1284.3
m1 = 0.1335	814.263	808.919	803.556	798.17	792.754	787.314	776.342	1286.2
m1 = 0.1645	820.66	815.323	809.967	804.588	799.184	793.753	782.802	1288.2
m1 = 0.1975	827.568	822.238	816.887	811.516	806.117	800.692	789.754	1290
m1 = 0.2264	833.698	828.373	823.028	817.66	812.272	806.857	795.939	1291.8
m1 = 0.258	840.493	835.168	829.828	824.467	819.083	813.673	802.774	1293.7
m1 = 0.285	846.334	841.014	835.678	830.323	824.946	819.544	808.66	1295.4
m1 = 0.3172	853.453	848.137	842.806	837.456	832.084	826.687	815.817	1297.3
